Source: US20090275503A1, “DIASTEREOMERIC PEPTIDES FOR MODULATING T CELL IMMUNITY” (Yeda Research and Developent Co., Ltd. at the Weizman …, priority 2005, published 2009)
Non-standard residues stand in square brackets, D forms with d. No end group written: not given here.

Assays:
Lewis rats = assay: Delayed type hypersensitivity to PPD in AA rats (Part A); type: in vivo, rat; details: 16 days after AA induction, ear thickness 48 hr after PPD
Experimental: Twenty μl of PPD (0.5 mg/ml in PBS) were injected intradermally into the pinna of the right ear of each rat on day 16 after AA induction; 20 μl of sterile PBS were injected in the left ear as control. The thickness of the ear was measured 48 hr later using a vernier caliper and expressed as the difference between the right and the left ear (Quintana et al., 2005).

BALB/c mice = assay: Delayed type hypersensitivity to oxazalone in mice; type: in vivo, mouse
Experimental: Groups of 5 female inbred BALB/c mice (The Jackson Laboratory) were sensitized on the shaved abdominal skin with 100 μl of 2% Oxazalone dissolved in acetone/olive oil [4:1 (vol/vol)] applied topically. DTH sensitivity was elicited 5 days later by challenging the mice with 20 μl of 0.5% Oxazalone in acetone/olive oil, 10 μl administered topically to each side of the ear. A constant area of the ear was measured immediately before challenge and 24 h after challenge with a Mitutoyo engineer's micrometer. The individual measuring ear swelling was unaware of the identity of the groups of mice. The DTH reaction is presented as the increment of ear swelling after challenge expressed as the mean±SEM in units of 10-2 mm. One hour after the challenge the mice's ears were treated topically with either all-L CP or with 2D-CP, both dissolved in 40 μl DMSO. The activity of the peptide treatments was compared to treatment with DMSO alone for “untreated mice” and Dexamethasone (100 μg/ml in saline) as a positive control.
To test whether TCR trans-membrane peptides could inhibit the elicitation of existing DTH reactivity, groups of naïve BALB/c mice were sensitized to 2% oxazalone. Five days later, the mice were challenged with 0.5% oxazalone administered to the ear. An hour after the challenge, the mice were treated with Dimethylsulfoxide (DMSO), all-L CP 150 μg (6 mg/kg) in DMSO, 2D-CP 150 μg (6 mg/kg) in DMSO, or dexamethasone, applied topically. On the following day, ear thickness was measured the swelling of DMSO treated mice (0.33±0.01 mm) was compared to that of mice treated with all-L CP (0.30±0.01 mm), 2D-CP (0.27±0.01 mm) and Dexamethasone (0.15±0.02 mm). […] Thus, 2D-CP can inhibit a T-cell mediated immune reaction in subjects already sensitized to the antigen.

target cells = assay: Cytotoxic effect on the target cells (Part A); details: incubated with the target cells

## GLRILLLKV [2D-CP] (GL[dR]ILLL[dK]V-NH2; also: rhodamine label, position not given here)
Lewis rats
  Reduction in the DTH response to PPD: 51%
BALB/c mice; 150 μg (6 mg/kg) topical in DMSO
  Reduction in ear swelling compared with all-L CP: twice the reduction
BALB/c mice; topical treatment 1 hr after oxazalone challenge, peptides 150 μg (6 mg/kg) in DMSO, measured following day
  Ear swelling: 0.27±0.01 mm
Target cells
  Cytotoxic effect: None of the peptides (all-L CP, 2D-CP or 2G CP) had a cytotoxic effect
